Experimental data reported in publication PMC7775894 (Bioorganic chemistry, 2020).
Converted amounts (≈) assume the structure as drawn. “And” between values parts separate entries of the source, which are not always exact repeats. Equal values may be shown once. Read-outs that look alike come from different tables or passages of the source.

Tests used:
[1] = system: M. tb H37Rv strain; assay: Microplate alamarBlue assay; assay type: cell-based, Mycobacterium tuberculosis
[2] = system: Mycobacterium abscessus (M. abs); assay: MABA MIC against M. abs; assay type: cell-based; details: for MIC: Mycobacteroides abscessus, read-out: M. abs MIC
[3] = system: Vero cells; assay: Cytotoxicity on Vero cells; assay type: cell-based; details: SI = IC50(Vero)/MIC(H37Rv)
[4] = system: M. tb V4207/DS; assay: microbe, parasite or virus in culture; assay type: cell-based; details: Mycobacterium tuberculosis, read-out: M. tb MIC V4207/DS
[5] = system: Mycobacterium avium (M. avium); assay: MABA MIC against M. avium; assay type: cell-based; details: for MIC: Mycobacterium avium, read-out: M. avium MIC
[6] = physchem; details: water, kinetic from dmso stock
[7] = system: XDR M. tb strains; assay: microbe, parasite or virus in culture; assay type: cell-based; details: Mycobacterium tuberculosis, read-out: MIC against XDR M. tb strains
[8] = system: M. tb H37Rv strain; details: cited from earlier work
[9] = cited from earlier work
[10] = system: DS- and DR-TB; assay: MIC against both DS- and DR-TB as stated in text; details: Mycobacterium tuberculosis, read-out: MIC against both DS- and DR-TB
[11] = system: DS- and DR-TB; details: cited from earlier work
[12] = cited from earlier work; remark: listed apart in the source
[13] = Mycobacterium tuberculosis, H37RV
[14] = M. tb H37Rv, MABA, at least 90% growth inhibition, average of three measurements

**Q.** With O=C(Nc1nc2ccccc2[nH]1)C12CC3CC(CC(C3)C1)C2 [13a, N-(1H-benzo[d]imidazol-2-yl)adamantane-1-carboxamide] as the compound, how does the MIC [1, 13] read?
**A.** 13.5 µM (≈ 3.99 µg/mL)

**Q.** For O=C(Nc1cc(Cl)cc(Cl)c1)NC12CC3CC(CC(O)(C3)C1)C2 [10b, 1-(3,5-dichlorophenyl)-3-(3-hydroxyadamantan-1-yl)urea], which MIC [1, 13] is on record?
**A.** > 90 µM

**Q.** For O=C(NC12CC3CC(CC(O)(C3)C1)C2)c1cc2ccccc2[nH]1 [8a, N-(3-hydroxyadamantan-1-yl)-1H-indole-2-carboxamide], which MIC [1, 13] is on record?
**A.** 51.5 µM (≈ 16 µg/mL)

**Q.** With COc1ccc2[nH]c(C(=O)NC34CC5CC(CC(C5)C3)C4)cc2c1 [8d, N-(1-Adamantyl)-5-methoxy-1H-indole-2-carboxamide] as the compound, how does the MIC [2] read?
**A.** > 197 µM

**Q.** What about the “Selectivity index (SI)” value [3] of the same compound?
**A.** ≥256

**Q.** And the MIC [1, 13]?
**A.** 0.77 µM (≈ 0.25 µg/mL)

**Q.** What about the MIC [4] of the same compound?
**A.** 0.39 to 0.77 µM (≈ 0.127 to 0.25 µg/mL)

**Q.** And the MIC [5]?
**A.** > 197 µM

**Q.** For COc1cccc2[nH]c(C(=O)NC34CC5CC(CC(O)(C5)C3)C4)cc12 [8c, N-(3-hydroxyadamantan-1-yl)-4-methoxy-1H-indole-2-carboxamide], which solubility kinetic [6] is on record?
**A.** 0.03 mg/mL (≈ 88.1 µM)

**Q.** What about the MIC [1, 13] of the same compound?
**A.** 11.7 µM (≈ 3.98 µg/mL)

**Q.** With O=C(NC12CC3CC(CC(O)(C3)C1)C2)c1cc2c(F)cc(F)cc2[nH]1 [8l, 4,6-difluoro-N-(3-hydroxyadamantan-1-yl)-1H-indole-2-carboxamide] as the compound, how does the solubility kinetic [6] read?
**A.** 0.019 mg/mL (≈ 54.9 µM)

**Q.** What about the MIC [2] of the same compound?
**A.** > 185 µM

**Q.** What about the “Selectivity index (SI)” value [3] of the same compound?
**A.** 32

**Q.** And the MIC [4]?
**A.** 2.89 µM (≈ 1 µg/mL)

**Q.** And the MIC [5]?
**A.** > 185 µM

**Q.** What does the source list for O=C(NC12CC3CC(CC(O)(C3)C1)C2)c1cc2cc(Cl)ccc2[nH]1 [8h, 5-chloro-N-(3-hydroxyadamantan-1-yl)-1H-indole-2-carboxamide]?
**A.** MIC [1, 14]: >93 µM; MIC [1, 13]: > 93 µM

**Q.** With O=C(NC12CC3CC(CC(O)(C3)C1)C2)c1cc2c(Cl)cc(Cl)cc2[nH]1 [8j, 4,6-dichloro-N-(3-hydroxyadamantan-1-yl)-1H-indole-2-carboxamide] as the compound, how does the MIC [7] read?
**A.** 0.66 µM (≈ 0.25 µg/mL)

**Q.** What about the MIC [2] of the same compound?
**A.** > 169 µM

**Q.** And the “Selectivity index (SI)” value [3]?
**A.** ≥128

**Q.** What about the MIC [1, 14] of the same compound?
**A.** 1.32 µM (≈ 0.501 µg/mL)

**Q.** And the MIC [4]?
**A.** 1.32 µM (≈ 0.501 µg/mL)

**Q.** And the MIC [5]?
**A.** > 169 µM

**Q.** What does the source list for O=C(Nc1cc(Cl)cc(Cl)c1)NC12CC3CC(CC(C3)C1)C2 [10a, 1-(1-Adamantyl)-3-(3,5-dichlorophenyl)urea]?
**A.** M. abs MIC ([2]; MABA): >189 µM; MIC [2]: > 189 µM; Selectivity index (SI) [3]: 4.0; MIC [4]: 1.47 µM (≈ 0.499 µg/mL); MIC [5]: 47.2 µM (≈ 16 µg/mL)

**Q.** With O=C(NC12CC3CC(CC(C3)C1)C2)c1cc2c(Cl)cc(Cl)cc2[nH]1 [compound 2, N-(1-adamantyl)-4,6-dichloroindole-2-carboxamide] as the compound, how does the MIC ([8]; ref 45) read?
**A.** 0.011 μM and 0.011 [45] μM

**Q.** And the in vivo activity ([9]; due to poor bioavailability)?
**A.** inactive in vivo

**Q.** What about the in vivo activity ([9]; likely due to poor bioavailability) of the same compound?
**A.** inactive in vivo

**Q.** For O=C(Nc1ccc(F)c(F)c1F)NC1C2CC3CC(C2)CC1C3 (centres unmarked) [compound 4], which MIC ([8]; ref 26, 43) is on record?
**A.** 0.03–0.3 [26, 43] μM

**Q.** For O=C(CC12CC3CC(CC(C3)C1)C2)Nc1nc2ccccc2[nH]1 [13b, 2-(1-Adamantyl)-N-(1H-benzo[d]imidazol-2-yl)acetamide], which MIC [1, 14] is on record?
**A.** >103 µM

**Q.** What about the MIC [1, 13] of the same compound?
**A.** > 103 µM

**Q.** What does the source list for O=C(NC12CC3CC(CC(C3)C1)C2)c1cc2c(F)cc(F)cc2[nH]1 [8k, N-(1-Adamantyl)-4,6-difluoro-1H-indole-2-carboxamide]?
**A.** solubility kinetic [6]: 0.007 mg/mL (≈ 21.2 µM); MIC [7]: 0.012 µM (≈ 0.00396 µg/mL); MIC [2]: > 194 µM; Selectivity index (SI) [3]: ≥8205; MIC [1, 13]: 0.024 µM (≈ 0.00793 µg/mL); MIC [4]: 0.024 µM (≈ 0.00793 µg/mL); MIC [5]: > 194 µM; MIC [10]: 0.012 to 0.024 µM (≈ 0.00396 to 0.00793 µg/mL)

**Q.** For Cc1ccc2[nH]c(C(=O)NC34CC5CC(CC(O)(C5)C3)C4)cc2c1 [8g, N-(3-hydroxyadamantan-1-yl)-5-methyl-1H-indole-2-carboxamide], which MIC [1, 13] is on record?
**A.** 24.7 µM (≈ 8.01 µg/mL)

**Q.** Which MIC [2] does the source give for Cc1ccc2[nH]c(C(=O)NC34CC5CC(CC(C5)C3)C4)cc2c1 [8f, N-(1-Adamantyl)-5-methyl-1H-indole-2-carboxamide] here?
**A.** > 207 µM

**Q.** And the “Selectivity index (SI)” value [3]?
**A.** ≥1024

**Q.** And the MIC [1, 13]?
**A.** 0.2 µM (≈ 0.0617 µg/mL)

**Q.** What about the MIC [4] of the same compound?
**A.** 0.2 µM (≈ 0.0617 µg/mL)

**Q.** And the MIC [5]?
**A.** > 207 µM

**Q.** For CC1(C)CCC(NC(=O)c2cc3c(Cl)cc(Cl)cc3[nH]2)CC1 [compound 1], which MIC ([8]; ref 23) is on record?
**A.** 0.015 [23] μM

**Q.** Which results are given for O=C(NC12CC3CC(CC(O)(C3)C1)C2)c1cc2ccc(Br)cc2[nH]1 [8i, 6-bromo-N-(3-hydroxyadamantan-1-yl)-1H-indole-2-carboxamide]?
**A.** MIC [2]: > 164 µM; Selectivity index (SI) [3]: 32; MIC [1, 13]: 1.32 to 2.89 µM (≈ 0.514 to 1.13 µg/mL); MIC [4]: 5.14 µM (≈ 2 µg/mL); MIC [5]: > 164 µM

**Q.** Which results are given for COc1nc2ccc(Br)cc2cc1[C@@H](c1ccccc1)[C@@](O)(CCN(C)C)c1cccc2ccccc12 [bedaquiline]?
**A.** MIC against both DS- and DR-TB [11]: 0.11 µM (≈ 0.0611 µg/mL); logP [12]: > 7

**Q.** Which MIC [1, 13] does the source give for COc1ccc2[nH]c(C(=O)NC34CC5CC(CC(O)(C5)C3)C4)cc2c1 [8e, N-(3-hydroxyadamantan-1-yl)-5-methoxy-1H-indole-2-carboxamide] here?
**A.** 47 µM (≈ 16 µg/mL)

**Q.** Which results are given for COc1cccc2[nH]c(C(=O)NC34CC5CC(CC(C5)C3)C4)cc12 [8b, N-(1-Adamantyl)-4-methoxy-1H-indole-2-carboxamide]?
**A.** solubility kinetic [6]: 0.005 mg/mL (≈ 15.4 µM); MIC [2]: 12.3 µM (≈ 3.99 µg/mL); Selectivity index (SI) [3]: ≥2048; MIC [1, 13]: 0.096 µM (≈ 0.0311 µg/mL); MIC [4]: 0.096 µM (≈ 0.0311 µg/mL); M. avium MIC ([5]; MABA): >197 µM; MIC [5]: > 197 µM

**Q.** Which MIC [1, 13] does the source give for O=C(Nc1nc2ccccc2[nH]1)NC12CC3CC(CC(C3)C1)C2 [compound 12, 1-(1-adamantyl)-3-(1H-benzo[d]imidazol-2-yl)urea] here?
**A.** 25.8 µM (≈ 8.01 µg/mL)
